# Values joined by “and” are separate entries in the source; they are usually repeats but may differ in a detail not shown here. Identical values can stand only once. Like-named read-outs stand apart in the source and are kept apart here.
# What was measured:
# [1] = format: physicochemical, human; details: for Extract freezer stability, Mean concentration / Extract freezer stability, RE % (mean vs nominal): human, 8 h
# Method: (§1) The following samples were also analyzed either in conjunction with one of the precision and accuracy runs or in one of the additional validation runs. Samples from six lots of control human plasma for specificity. Samples from six lots of control human plasma fortified with internal standard for specificity. Two concentration levels of unextracted QC-samples in triplicate (solvent standards) were analyzed for the evaluation of the recovery of sodium 2,2-dimethylbutyrate and DMV in human plasma. Two levels of QC samples (Low QC and High QC in triplicate) were subjected to three freeze/thaw cycles at approximately −70° C. prior to extraction to evaluate freeze/thaw stability. Two levels of QC samples (Low QC and High QC in triplicate) were placed on the bench top for approximately 17 hours prior to extraction for the evaluation of the bench top stability. Triplicate low QC samples and triplicate high QC samples were stored for one month and three months in a freezer at approximately −70° C., and then extracted and analyzed to evaluate long term stability in human plasma. Two levels of extracted QC samples (Low QC and High QC) were re-analyzed after approximately 71 hours in the autosampler at room temperature to evaluate the extract autosampler stability. Two levels of extracted QC samples (Low QC and High QC) were re-analyzed after approximately 8 hours in the freezer at approximately −20° C. to evaluate the extract freeze stability. Three aliquots of a dilution QC sample diluted 10-fold. Triplicate dilutions of the old stock solution (stored at approximately 4° C.) and new stock solutions prepared at intervals of two weeks and one month. Statistical calculations in the report tables were calculated from unrounded concentration values taken directly from the raw data. The concentration values were rounded for display purposes.
# QC-Low and QC-High extract samples in triplicate were analyzed and then stored in a −20° C. freezer for approximately 8 hours. These QC samples were then re-analyzed to evaluate the extract freezer stability. The CV % values for the QC-Low and QC-High stability samples are 8.6% and 1.2%, respectively. To calculate the RE %, the measured mean concentration was compared to the nominal concentration. The RE % values for the QC-Low and QC-High stability samples are −6.3% and −13.0%, respectively.
# [2] = format: physicochemical, human; details: for Long-term freezer stability, Mean concentration / Long-term freezer stability, RE % (mean vs nominal): human
# Method: as §1
# QC-Low and QC-High plasma samples, which had been stored in a freezer at approximately −70° C. for one month and three months, were extracted in triplicate and analyzed. The CV % values for the QC-Low and QC-High stability samples range from 4.0% to 11.1%. To calculate the RE %, the measured mean concentration was compared to the nominal concentration. The RE % values for the QC-Low and QC-High stability samples range from −13.7% to 4.1%. All CV % values and RE % values are within the acceptance criteria (≦15% and ±15% respectively).
# [3] = Bench top stability in rat plasma; format: physicochemical; details: for Bench top stability, RE % (mean vs nominal): room temperature approximately 12.5 hours
# Method: (§2) For the remaining validation tests, a calibration curve and triplicates QCs at the low, mid and high levels were analyzed with each sample set. The following samples were also analyzed either in conjunction with one of the precision and accuracy runs or in one of the additional validation runs: Samples from six lots of control rat plasma for specificity; Samples from six lots of control rat plasma fortified with internal standard for specificity; Two concentration levels of unextracted QC-samples in triplicate (solvent standards) were analyzed for the evaluation of the recovery of sodium 2,2-dimethylbutyrate and DMV in rat plasma; Two levels of QC samples (Low QC and High QC in triplicate) were subjected to three freeze/thaw cycles at approximately −70° C. prior to extraction to evaluate freeze/thaw stability; Two levels of QC samples (Low QC and High QC in triplicate) were placed on the bench top for approximately 17 hours prior to extraction for the evaluation of the bench top stability; Triplicate low QC samples and triplicate high QC samples were stored for one month and three months in a freezer at approximately −70° C., and then extracted and analyzed to evaluate long term stability in rat plasma; Three aliquots of a dilution QC sample diluted 10-fold.
# Bench top stability was evaluated at room temperature for approximately 12.5 hours. Triplicate QC-Low and QC-High samples were extracted and analyzed after these storage conditions. The CV % values for the QC-Low and QC-High stability samples are 6.3% and 11.7%, respectively. To calculate the RE %, the measured mean concentration was compared to the nominal concentration. The RE % values for the QC-Low and QC-High stability samples are 7.6% and 9.1%, respectively.
# [4] = format: physicochemical, rat; details: for Mean concentration, QC-Low / RE %, QC-Low / Measured concentration, QC-Low: nominal 0.60 μg/mL; for Measured concentration, QC-Low / Measured concentration, QC-High: individual replicates; for Mean concentration, QC-High / RE %, QC-High / Measured concentration, QC-High: nominal 40.0 μg/mL; for Long-term freezer stability, RE %: rat, 0.6 μg/mL
# Method: as §2
# QC-Low and QC-High plasma samples, which had been stored in a freezer at approximately −70° C. for one month and three months (98 days), were extracted in triplicate and analyzed. At the one month interval, the RE % was −24.1% for the QC-Low level. This may have been an anomaly since at the QC-Low level for the three month interval, the RE % was 4.1%. All CV % values and RE % values at the 98 day interval were within the acceptance criteria (≦15% and ±15% respectively). Therefore, sodium 2,2-dimethylbutyrate can be considered stable in rat plasma at approximately −70° C. for at least […].
# [5] = Freeze/thaw stability in human urine; format: physicochemical; details: stored at −70° C. and thawed, repeated twice, 0.3, 19 and 38 μg/ml
# Method: The applicability of the testing methodology to analyze samples stored under different conditions was analyzed. First, to assess short-term stability of DMB in human urine, samples at 0.3, 19 and 38 μg/ml, 92.3% of DMB were maintained unextracted at room temperature and at bench-top light levels for six hours. […] Second, to assess freeze/thaw stability of DMB in human urine, samples at 0.3, 19 and 38 μg/ml, 92.3% of DMB were stored at −70° C. and thawed. This process was repeated twice and samples after each freezing were analyzed for DMB as described. For each concentration and each freezing/thawing sample, the % CV was no more than 15%.
# [6] = rat plasma, approximately −70° C., 1 Month Interval
# [7] = rat plasma, approximately −70° C., 3 Month Interval
smiles,measurement,setting,value
"CCC(C)(C)C(=O)[O-].[Na+] [Sodium 2,2-Dimethylbutyrate]",Time stable in the extract in the freezer,"[1]; human plasma extract, freezer at −20° C.",at least 8 hours
same,"Extract freezer stability, Mean concentration",[1]; 0.6 μg/mL,0.562 µg/mL
same,"Extract freezer stability, RE % (mean vs nominal)",[1]; 0.6 μg/mL,−6.3%
same,"Extract freezer stability, Mean concentration",[1]; 40 μg/mL,34.8 µg/mL
same,"Extract freezer stability, RE % (mean vs nominal)",[1]; 40 μg/mL,−13.0%
same,Time stable in freezer,"[2]; human plasma, approximately −70° C.",up to three months
same,"Long-term freezer stability, Mean concentration","[2]; 1 month, 0.6 μg/mL",0.552 µg/mL
same,"Long-term freezer stability, RE % (mean vs nominal)","[2]; 1 month, 0.6 μg/mL",−7.9%
same,"Long-term freezer stability, Mean concentration","[2]; 1 month, 40 μg/mL",38.2 µg/mL
same,"Long-term freezer stability, RE % (mean vs nominal)","[2]; 1 month, 40 μg/mL",−4.6%
same,"Long-term freezer stability, Mean concentration","[2]; 3 months, 0.6 μg/mL",0.624 µg/mL
same,"Long-term freezer stability, RE % (mean vs nominal)","[2]; 3 months, 0.6 μg/mL",4.1%
same,"Long-term freezer stability, Mean concentration","[2]; 3 months, 40 μg/mL",34.5 µg/mL
same,"Long-term freezer stability, RE % (mean vs nominal)","[2]; 3 months, 40 μg/mL",−13.7%
same,Time stable on bench top,[3]; ambient bench top storage,approximately 12.5 hours
same,"Measured concentration, QC-Low","[3]; bench top room temperature, nominal 0.60 μg/mL, individual replicates",0.600 µg/mL and 0.677 µg/mL and 0.660 µg/mL
same,"Measured concentration, QC-High","[3]; bench top room temperature, nominal 40.0 μg/mL, individual replicates",45.6 µg/mL and 37.9 µg/mL and 47.4 µg/mL
same,"Mean concentration, QC-Low","[3]; bench top, nominal 0.60 μg/mL",646 ng/mL
same,"RE %, QC-Low","[3]; bench top, nominal 0.60 μg/mL",7.6%
same,"Mean concentration, QC-High","[3]; bench top, nominal 40.0 μg/mL",43600 ng/mL
same,"RE %, QC-High","[3]; bench top, nominal 40.0 μg/mL",9.1%
same,"Bench top stability, RE % (mean vs nominal)",[3]; QC-High,9.1%
same,"Bench top stability, RE % (mean vs nominal)",[3]; QC-Low,7.6%
same,"Mean concentration, QC-Low",[4]; [6],456 ng/mL
same,"RE %, QC-Low",[4]; [6],−24.1%
same,"Measured concentration, QC-Low",[4]; [6],0.410 µg/mL and 0.484 µg/mL and 0.473 µg/mL
same,"Mean concentration, QC-High",[4]; [6],34700 ng/mL
same,"RE %, QC-High",[4]; [6],−13.3%
same,"Measured concentration, QC-High",[4]; [6],35.4 µg/mL and 34.3 µg/mL and 34.4 µg/mL
same,"Mean concentration, QC-Low",[4]; [7],620 ng/mL
same,"RE %, QC-Low",[4]; [7],4.1%
same,"Measured concentration, QC-Low",[4]; [7],0.663 μg/mL and 0.605 μg/mL (2×)
same,"Mean concentration, QC-High",[4]; [7],37200 ng/mL
same,"RE %, QC-High",[4]; [7],−7.1%
same,"Measured concentration, QC-High",[4]; [7],38.0 μg/mL (2×) and 35.5 μg/mL
same,Time stable in freezer,"[4]; rat plasma, approximately −70° C.",at least 99 days
same,"Long-term freezer stability, RE %",[4]; 1 month,−24.1%
same,"Long-term freezer stability, RE %",[4]; 98 days,4.1%
same,% CV after freeze/thaw,[5],no more than 15%

# Source: US20110033946A1, “DETECTION OF SHORT-CHAIN FATTY ACIDS IN BIOLOGICAL SAMPLES” (HEMAQUEST PHARMACEUTICALS, INC., priority 2009, published 2011)
